From patent publication US5707963A, “Methods of using growth inhibitory peptides” (Health Research, Incorporated, priority 1996, dated 1998)
“And” between values parts separate entries of the source, which are not always exact repeats. Equal values may be shown once. Read-outs that look alike come from different tables or passages of the source.

Legend:
[1] = tested on: human chorionic gonadotropin (HCG)-stimulated growth of mouse ovary; assay: In vivo wet weight bioassay, inhibition of HCG-stimulated growth of the ovary; settings: for Percent Growth Inhibition: immature mouse ovary
Protocol: An in vivo wet weight bioassay measuring inhibition of human chorionic gonadotropin (HCG)-stimulated growth of the ovary was performed. The procedure of Mizejewski et al. (see previous citations) was used for the wet weight assay. The applicability of the wet weight bioassay for measuring HCG-stimulated growth of the ovary is disclosed by Mizejewski, G. J., "Human Chorionic Gonadotrophin: Comparative Studies of Ovarian Uptake In Mammals", Comp Biochem Physio 52A:29-34 (1975).
(§1) Briefly, the synthesized powdered peptide was reconstituted in saline (1 mg/ml) to form a stock solution of the GIP. The stock solution was appropriately diluted to provide dosages of 10ng to 100 μg/mouse. 0.1 ml of the appropriately diluted GIP was injected intraperitoneally into 15-18 day old Nya:NYLAR female mice. Control mice were injected with saline. 1 hour after this first injection, an HCG challenge of 2.8 I.U. of HCG in 0.05 ml saline was given to determine the change in ovarian responsiveness to HCG resulting from exposure to the first injection. 23 hours after the second injection, ovaries were dissected, trimmed free of connective tissue and immediately weighed. The ovarian wet weights were normalized to mouse body weight (mg ovarian weight/g of body weight) to compensate for differences in body weight among litters of the same age. Percent inhibition of HCG-stimulated ovarian growth was calculated as described by Mizejewski et al. (1983).

[2] = tested on: hydrocortisone (HC)-stimulated growth of mouse spleen; assay: In vivo wet weight bioassay, inhibition of HC-stimulated growth of the spleen; settings: for Percent Growth Inhibition: immature mouse spleen
Protocol: An in vivo wet weight bioassay measuring inhibition of hydrocortisone (HC)-stimulated growth of the spleen was also performed. The procedure of Mizejewski et al. (see previous citations) was used for the wet weight assay. The applicability of the wet weight bioassay for measuring HC-stimulated growth of the spleen is disclosed by el-Fouhil, A. F. and Turkall, R. M., "Effect of alternate-day hydrocortisone therapy on the immunologically immature rat. I: Effect on blood cell count, immunoglobulin concentrations, and body and organ weights", Toxicologic Pathology 21(4):377-382 (1993).
as §1, with “500 ng” for “10ng”, “1 hour after this first injection, an HCG challenge of 2.8 I.U. of HCG in 0.05 ml saline was given to determine the change in ovarian responsiveness to HCG resulting from exposure to the first injection.” left out, “spleens” for “ovaries”, “spleenic” for “ovarian”, “HC-stimulated spleenic” for “HCG-stimulated ovarian”

[3] = tested on: human MCF-7 breast cancer cells; assay: In vitro MCF-7 focus assay (estrogen-induced foci formation); assay type: cell-based; settings: for Percent Foci Inhibition: MCF-7 Cell Culture
Text: In an in vitro bioassay, the MCF-7 focus assay was used for preliminary evaluation of the GIP preparation for both estrogenicity and antiestrogenicity. One of the major consequences of human estrogen exposure is induction of cell proliferation and subsequent structural rearrangement of the acini, a process based on the interactions of multiple estrogen dependent gene expressions. […] The estrogen dependent MCF-7 cell proliferation is primarily a postconfluent event which leads to development of multicellular aggregates (foci). […] The procedure of Gierthy et al. was used for the MCF-7 assay of the GIP (see Gierthy, J. F. et al., "Correlation of in Vitro and in Vivo Growth Suppression of MCF-7 Human Breast Cancer by 2,3,7,8-Tetrachlorodibenzo-p-dioxin" Cancer Research 53:3149-3153 (1993)).
Briefly, stock MCF-7 cells were suspended in medium (see Gierthy, J. F. et al. 1993) after treatment with trypsin (0.25%) and seeded into 24-well plastic tissue culture plates. The MCF-7 cells were seeded (2 cm^2 /well) at a density of b 10^5 cells/well in 1 ml of medium, and incubated at 37° C. in a humidified atmosphere containing 5% CO2. The cultures were refed at 24 hours and every 4-5 days thereafter with 2 ml medium supplemented with 1×10^-9 M 17β-estradiol, a concentration which induces maximum focus development, and various concentrations of GIP (10^-8 M-10^-13 M) in nonestrogenic DC5 medium and estrogenic DF5 medium which contains high levels of bovine alpha-fetoprotein (5% fetal bovine serum supplemented). After 14 days the cultures were fixed with formalin in pH 7.4 buffer (see Gierthy, J. F. et al. 1993) and stained with 1% rhodamine B. Foci were counted by using an automated colony counter modified to magnify the image of the microscopic multicellular foci. The foci retained the red rhodamine B stain to a greater extent than did surrounding monolayer cells, affording appropriate contrast for enumeration.

[4] = tested on: mouse mammary tumor 6WI-1; assay type: in vivo
Protocol: A second assay was also used to assess the percent of inhibition for the various fragments. […] The procedure of Parsons et al. was used in this assay (see Parsons et al., Cancer investigation 4(2):109-126 (1986)). The mouse mammary tumor 6WI-1 normally kills animals within 12-15 days. In this assay, the tumor cells were injected into the body cavity of live mice. […] The inhibition of tumor growth is indicated by percentage. […] Unless otherwise indicated, the dose of peptide or peptide fragment was injected into the body cavity of the mice on day 1 and every day for 15 days. Percent inhibition was measured on day 15.

Substance: Leu Ser Glu Asp Lys Leu Leu Ala Cys Gly Glu Gly Ala Ala Asp Ile ile Ile Gly His Leu Cys Ile Arg His Glu Met Thr Pro Val Ash Pro Gly Val (LSEDKLLACGEGAADIIIGHLCIRHEMTPVNPGV) [GIP]
- inhibition of HCG-induced growth (range over Table 5) ([1]; 10ng to 100 μg/mouse): 22-100%
- Percent Growth Inhibition ([1]; 100 ng per mouse): 70%
- Percent Growth Inhibition ([1]; 125 ng per mouse): 50%
- Percent Growth Inhibition ([1]; 250 ng per mouse): 56%
- Percent Growth Inhibition ([1]; 500 ng per mouse): 67%
- Percent Growth Inhibition ([1]; 1 μg per mouse): 100% and 79%
- Percent Growth Inhibition ([1]; 10 μg per mouse): 94%
- Percent Growth Inhibition ([1]; 100 μg per mouse i.p., HCG 2.8 I.U.): 22%
- most effective dose ([1]; immature ovary, produced 100% growth inhibition): 1 μg/mouse
- inhibition of HC-induced growth (range over Table 4) ([2]; 500 ng to 100 μg/mouse): 24-100%
- Percent Growth Inhibition ([2]; 1.0 μg per mouse): 100%
- Percent Growth Inhibition ([2]; 10.0 μg per mouse): 76%
- Percent Growth Inhibition ([2]; 100 μg per mouse, 1.0 μg of HC instead of 0.5 μg): 24% and 34%
- Percent Growth Inhibition ([2]; 100 μg per mouse, HC 0.5 micrograms): 67%
- most effective dose ([2]; immature spleen, produced 100% growth inhibition): 1.0 μg/mouse
- inhibition in the MCF-7 cell culture assays ([3]; 10^-10 to 10^-13 M peptide concentration): 60-70%
- Percent Foci Inhibition ([3]; 14 days): 60-70%
- Percent Foci Inhibition ([3]; peptide molarity 10^-11 -10^-13, 14 days): 60-74% and 50-60%
- Percent Foci Inhibition ([3]; peptide molarity 10^-12, added human AFP): 40%
- maximum inhibition of DF5 induced foci development ([3]; estrogenic DF5 medium, GIP 10^-10 to 10^-13 M): 74%
- concentration at which estrogenic foci induction starts ([3]; nonestrogenic DC5 medium, dose responsive): 10^-8 M
- Percent Growth Inhibition ([4]; adult mouse, 100 μg per mouse daily for 15 days, 0.3-1.0×10^6 tumor cells per mouse, day 15): 97%
- Percent Growth Inhibition ([4]; adult mouse, 100 μg per mouse daily for 15 days, 1.1-4.0×10^6 tumor cells per mouse, day 15): 79%
- Percent Growth Inhibition ([4]; adult mouse, 1.1-4.0 × 10^6 tumor cells mixed with 100 μg of the peptide, injected only on day 1): 85%
- Percent Growth Inhibition ([4]; immature mouse, 1000 μg per mouse daily for 15 days, 0.3-1.0×10^6 tumor cells per mouse, day 15): 57%
- Percent Growth Inhibition ([4]; immature mouse, 1000 μg per mouse daily for 15 days, 1.1-4.0×10^6 tumor cells per mouse, day 15): 49%
